Among the data in patent US12378249B2, “Isoquinoline compounds and uses thereof” (Genentech, Inc., priority 2018, dated 2025) are Ki values, retold here.

Sequence of HPK1 (Q92918 whole entry T165E/S171E): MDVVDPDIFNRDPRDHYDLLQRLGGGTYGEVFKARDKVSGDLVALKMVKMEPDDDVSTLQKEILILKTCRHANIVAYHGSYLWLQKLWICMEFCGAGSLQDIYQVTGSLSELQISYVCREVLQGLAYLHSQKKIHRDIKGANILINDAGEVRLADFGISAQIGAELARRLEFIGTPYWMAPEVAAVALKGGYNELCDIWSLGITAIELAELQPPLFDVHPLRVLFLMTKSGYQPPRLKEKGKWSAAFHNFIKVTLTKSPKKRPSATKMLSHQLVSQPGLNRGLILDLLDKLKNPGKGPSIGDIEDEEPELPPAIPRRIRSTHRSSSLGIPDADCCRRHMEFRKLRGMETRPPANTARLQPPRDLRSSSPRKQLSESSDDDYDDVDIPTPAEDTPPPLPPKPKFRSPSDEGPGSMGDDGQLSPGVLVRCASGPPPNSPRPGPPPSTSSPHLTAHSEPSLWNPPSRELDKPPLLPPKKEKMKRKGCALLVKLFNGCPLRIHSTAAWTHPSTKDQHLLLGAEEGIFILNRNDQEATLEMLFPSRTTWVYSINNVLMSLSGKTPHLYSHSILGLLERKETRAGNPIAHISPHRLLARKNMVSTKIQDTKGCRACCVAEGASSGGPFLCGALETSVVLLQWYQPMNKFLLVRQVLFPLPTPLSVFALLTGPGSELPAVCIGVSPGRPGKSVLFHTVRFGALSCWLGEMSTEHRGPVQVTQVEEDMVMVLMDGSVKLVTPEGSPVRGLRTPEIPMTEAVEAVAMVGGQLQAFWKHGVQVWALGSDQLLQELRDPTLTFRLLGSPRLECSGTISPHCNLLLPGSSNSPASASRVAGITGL

The test concerns the target HPK1 (Homo sapiens (Human), UniProt Q92918, S171E/T165E). The experiment in a line: HPK1-FL HTRF Enzymatic Assay (HTRF). The test is classed as biochemical. The conditions noted are these: HPK full length T165E S171E 0.125 nM, ATP 1 mM, Biotin-SLP76 100 nM, read-out: HPK1 Ki (nM), H = HTRF. The method, then: Exemplary compounds of Formula (I) were tested to assess compound inhibition of HPK-1. The Ki for each exemplary compound was determined
Example B1: HPK1-FL HTRF Enzymatic Assay (“HTRF”)
HPK-FL enzyme phosphorylates Biotin-SLP-76 substrate in the presence of ATP at 1 mM and varying concentrations of test compound. Product is detected by FRET using Eu-anti-pSLP76 Ab and SA-XL665. Also see www.cisbio.com/HTRF for additional HTRF technology information.
• Echo555 compound dispenser • Agilent Bravo • Perkin Elmer Envision Final Assay Conditions:
Materials: • Assay plate: White ProxiPlate 384 F (PerkinElmer cat #6008289) • Kinase: HPK full length double mutant • Substrate: Biotin-SLP76 • ATP: 100 mM ATP • BSG: 2% BSG • DMSO: DMSO (Sigma cat #34869-100ML) • Reaction Buffer: H2O/50 mM HEPES, pH 7.5/10 mM MgCl2/2 mM TCEP/0.01% Brij-35/0.01% BSG • Detection mix:Eu-anti-pSLP76/SA-XL665 (Cisbio, #610SAXAC) Assay Procedure Ki determination:
To a 384 well Proxiplate with 80 nL compound or DMSO spotted on was added 4 μl/well kinase mix. The mixture was preincubated for 30 minutes and then 4 μl/well substrate mix was added. The solution was incubated for 60 min and then 4 μl/well detection mix was added. The solution was incubated for another 60 min. The plates were then loaded onto a Perkin Elmer Envision and the TR-FRET signal was measured at 615 and 665 nm. A ratio of […] was used to calculate the % activity at each concentration of compound.
Usually Ki stands for the dissociation constant of the complex between target and ligand, obtained from inhibition or displacement. With `CC(C)N1CCc2cc(Nc3cc4cc(C(=O)N5CCN(C)CC5)c(F)cc4cn3)nn2CC1=O` [Compound 124, 2-((7-fluoro-6-(4-methylpiperazine-1-carbonyl)isoquinolin-3-yl)amino)-6-isopropyl-5,6-dihydro-4H-pyrazolo[1,5-d][1,4]diazepin-7(8H)-one], the Ki was found to be 63 nM.

As for `Cc1c(N)cncc1-c1cc2cc(Nc3cc4n(n3)Cc3nccn3CC4)ncc2cc1F` [Compound 125, N-(6-(5-amino-4-methylpyridin-3-yl)-7-fluoroisoquinolin-3-yl)-5,6-dihydro-11H-imidazo[1,2-a]pyrazolo[1,5-d][1,4]diazepin-8-amine], the inhibition constant Ki is 0.03 nM.

For `Cc1ncc(-c2cc3cc(Nc4cc5n(n4)CC(=O)N(C(C)C)CC5)ncc3cc2F)c(C)c1N` [Compound 126, 2-((6-(5-amino-4,6-dimethylpyridin-3-yl)-7-fluoroisoquinolin-3-yl)amino)-6-isopropyl-5,6-dihydro-4H-pyrazolo[1,5-d][1,4]diazepin-7(8H)-one], the Ki turned out to be 0.148 nM.

Regarding `Cc1c(N)cncc1-c1cc2cc(Nc3cc4n(n3)CC(=O)N(C)CC4(F)F)ncc2cc1F` [Compound 127, 2-[[6-(5-amino-4-methyl-3-pyridyl)-7-fluoro-3-isoquinolyl]amino]-4,4-difluoro-6-methyl-5,8-dihydropyrazolo[1,5-d][1,4]diazepin-7-one], the Ki stood at 0.04 nM.

For `Cc1c(N)cncc1-c1ccc2cnc(Nc3cc4n(n3)CC(=O)N(C(C)C)CC4)cc2c1` [Compound 129, 2-[[6-(5-amino-4-methyl-3-pyridyl)-3-isoquinolyl]amino]-6-isopropyl-5,8-dihydro-4H-pyrazolo[1,5-d][1,4]diazepin-7-one], the Ki worked out at 0.04 nM.

For `Cc1ccncc1-c1cc2cc(Nc3cc4n(n3)CC(=O)N(C(C)C)CC4)ncc2cc1F` [Compound 131, 2-[[7-fluoro-6-(4-methyl-3-pyridyl)-3-isoquinolyl]amino]-6-isopropyl-5,8-dihydro-4H-pyrazolo[1,5-d][1,4]diazepin-7-one], the inhibition constant (Ki) was determined as 2.5 nM.

In the case of `Cc1c(-c2cc3cc(Nc4cc5n(n4)CC(=O)N(CCN4CCOCC4)CC5)ncc3cc2F)cnc2c1NCCO2` [Compound 132, 2-[[7-fluoro-6-(8-methyl-2,3-dihydro-1H-pyrido[2,3-b][1,4]oxazin-7-yl)-3-isoquinolyl]amino]-6-(2-morpholinoethyl)-5,8-dihydro-4H-pyrazolo[1,5-d][1,4]diazepin-7-one], the Ki is 0.02 nM.

With `Cc1ncc(-c2cc3cc(Nc4cc5n(n4)CC(=O)N(C(C)C)CC5)ncc3c(O)c2F)c(C)c1N` [Compound 133, 2-((6-(5-amino-4,6-dimethylpyridin-3-yl)-7-fluoro-8-hydroxyisoquinolin-3-yl)amino)-6-isopropyl-5,6-dihydro-4H-pyrazolo[1,5-d][1,4]diazepin-7(8H)-one], the Ki came out at 3.7 nM.

With `Cc1ccncc1-c1cc2cc(Nc3cc4n(n3)CC3=NOC(C)(C)N3CC4)ncc2cc1F` [Compound 134, N-(7-fluoro-6-(4-methylpyridin-3-yl)isoquinolin-3-yl)-3,3-dimethyl-5,6-dihydro-3H,11H-[1,2,4]oxadiazolo[4,3-a]pyrazolo[1,5-d][1,4]diazepin-8-amine], the Ki was found to be 3.4 nM.

For `Cc1c(-c2cc3cc(Nc4cc5n(n4)CC(=O)N(C(C)C)CC5)ncc3c(F)c2F)cnc2c1NCCO2` [Compound 135, 2-((7,8-difluoro-6-(8-methyl-2,3-dihydro-1H-pyrido[2,3-b][1,4]oxazin-7-yl)isoquinolin-3-yl)amino)-6-isopropyl-5,6-dihydro-4H-pyrazolo[1,5-d][1,4]diazepin-7(8H)-one], the Ki worked out at 0.038 nM.

For the compound `Cc1c(N)cncc1-c1cc2cc(Nc3cc4n(n3)CC(=O)N(CCN3CCOCC3)CC4)ncc2cc1F` [Compound 136, 2-((6-(5-amino-4-methylpyridin-3-yl)-7-fluoroisoquinolin-3-yl)amino)-6-(2-morpholinoethyl)-5,6-dihydro-4H-pyrazolo[1,5-d][1,4]diazepin-7(8H)-one], the Ki amounted to 0.028 nM.

Take `COc1cc(C)c(-c2cc3cc(Nc4cc5n(n4)CC(=O)N(C)CC5)ncc3cc2F)cn1` [Compound 137, 2-((7-fluoro-6-(6-methoxy-4-methylpyridin-3-yl)isoquinolin-3-yl)amino)-6-methyl-5,6-dihydro-4H-pyrazolo[1,5-d][1,4]diazepin-7(8H)-one]: the Ki turned out to be 2.2 nM.

In the case of `Cc1c(-c2cc3cc(Nc4cc5n(n4)CC(=O)N(C)CC5)ncc3c(F)c2F)cnc2c1NCCO2` [Compound 138, 2-((7,8-difluoro-6-(8-methyl-2,3-dihydro-1H-pyrido[2,3-b][1,4]oxazin-7-yl)isoquinolin-3-yl)amino)-6-methyl-5,6-dihydro-4H-pyrazolo[1,5-d][1,4]diazepin-7(8H)-one], the Ki amounted to 0.013 nM.

As to `Cc1c(-c2cc3cc(Nc4cc5n(n4)CC(=O)N(C(C)C)CC5)ncc3cc2F)cnc2oc(=O)[nH]c12` [Compound 142, 6-(7-fluoro-3-((6-isopropyl-7-oxo-5,6,7,8-tetrahydro-4H-pyrazolo[1,5-d][1,4]diazepin-2-yl)amino)isoquinolin-6-yl)-7-methyloxazolo[5,4-b]pyridin-2(1H)-one], the Ki came out at 1.9 nM.

With `Cc1c(-c2cc3cc(Nc4cc5n(n4)Cc4nccn4CC5)ncc3cc2F)cnc2c1NCCO2` [Compound 143, N-(7-fluoro-6-(8-methyl-2,3-dihydro-1H-pyrido[2,3-b][1,4]oxazin-7-yl)isoquinolin-3-yl)-5,6-dihydro-11H-imidazo[1,2-a]pyrazolo[1,5-d][1,4]diazepin-8-amine], the Ki stood at 0.013 nM.

Regarding `Cc1c(N)cncc1-c1cc2cc(Nc3cc4n(n3)CC(=O)NCC4)ncc2cc1F` [Compound 144, 2-((6-(5-amino-4-methylpyridin-3-yl)-7-fluoroisoquinolin-3-yl)amino)-5,6-dihydro-4H-pyrazolo[1,5-d][1,4]diazepin-7(8H)-one], the Ki worked out at 0.062 nM.

Turning to `Cc1c(-c2cc3cc(Nc4cc5n(n4)CC(=O)N(CCO)CC5)ncc3cc2F)cnc2c1NCCO2` [Compound 145, 2-((7-fluoro-6-(8-methyl-2,3-dihydro-1H-pyrido[2,3-b][1,4]oxazin-7-yl)isoquinolin-3-yl)amino)-6-(2-hydroxyethyl)-5,6-dihydro-4H-pyrazolo[1,5-d][1,4]diazepin-7(8H)-one], the Ki turned out to be 0.013 nM.

Turning to `Cc1c(-c2ccc3cnc(Nc4cc5n(n4)CC(=O)N(CCO)CC5)cc3c2F)cnc2c1NCCO2` [Compound 146, 2-((5-fluoro-6-(8-methyl-2,3-dihydro-1H-pyrido[2,3-b][1,4]oxazin-7-yl)isoquinolin-3-yl)amino)-6-(2-hydroxyethyl)-5,6-dihydro-4H-pyrazolo[1,5-d][1,4]diazepin-7(8H)-one], the Ki stood at 0.034 nM.

As to `Cc1c(-c2cc3cc(Nc4cc5n(n4)Cc4nncn4CC5)ncc3cc2F)cnc2c1NCCO2` [Compound 151, N-(7-fluoro-6-(8-methyl-2,3-dihydro-1H-pyrido[2,3-b][1,4]oxazin-7-yl)isoquinolin-3-yl)-5,6-dihydro-11H-pyrazolo[1,5-d][1,2,4]triazolo[4,3-a][1,4]diazepin-8-amine], the Ki turned out to be 0.013 nM.

For the compound `Cc1c(N)cncc1-c1ccc2cnc(Nc3cc4n(n3)CC(=O)N(C(C)C)CC4)cc2c1Cl` [Compound 152, 2-((6-(5-amino-4-methylpyridin-3-yl)-5-chloroisoquinolin-3-yl)amino)-6-isopropyl-5,6-dihydro-4H-pyrazolo[1,5-d][1,4]diazepin-7(8H)-one], the Ki is 0.028 nM.

As to `COCCN1CCc2cc(Nc3cc4cc(-c5cnc6c(c5C)NCCO6)c(F)cc4cn3)nn2CC1=O` [Compound 155, 2-((7-fluoro-6-(8-methyl-2,3-dihydro-1H-pyrido[2,3-b][1,4]oxazin-7-yl)isoquinolin-3-yl)amino)-6-(2-methoxyethyl)-5,6-dihydro-4H-pyrazolo[1,5-d][1,4]diazepin-7(8H)-one], the inhibitory constant (Ki) was determined as 0.013 nM.

Take `COCCN1CCc2cc(Nc3cc4cc(-c5cncc(N)c5C)c(F)cc4cn3)nn2CC1=O` [Compound 156, 2-((6-(5-amino-4-methylpyridin-3-yl)-7-fluoroisoquinolin-3-yl)amino)-6-(2-methoxyethyl)-5,6-dihydro-4H-pyrazolo[1,5-d][1,4]diazepin-7(8H)-one]: the Ki came out at 0.017 nM.

Turning to `Cc1c(N)cncc1-c1cc2cc(Nc3cc4n(n3)Cc3nccn3CC4)ncc2c(F)c1F` [Compound 157, N-(6-(5-amino-4-methylpyridin-3-yl)-7,8-difluoroisoquinolin-3-yl)-5,6-dihydro-11H-imidazo[1,2-a]pyrazolo[1,5-d][1,4]diazepin-8-amine], the Ki amounted to 0.014 nM.

In the case of `Cc1c(N)cncc1-c1cc2cc(Nc3cc4n(n3)CC(=O)N(CC(C)(C)O)CC4)ncc2cc1F` [Compound 158, 2-((6-(5-amino-4-methylpyridin-3-yl)-7-fluoroisoquinolin-3-yl)amino)-6-(2-hydroxy-2-methylpropyl)-5,6-dihydro-4H-pyrazolo[1,5-d][1,4]diazepin-7(8H)-one], the Ki stood at 0.023 nM.
